{"source": "patent US11311576B2", "about": "“Methods of use for CAR T cells” (Seattle Children's Hospital, priority 2018, dated 2022)", "key": {"[1]": {"assay": "EC17/E2-CAR T-cell therapy in naïve NSG mice without tumor", "assay_type": "in vivo", "conditions": "10 million E2 CAR-T cells, EC17 500 nmol/kg x2 doses", "experimental": "EGFRt-sorted anti-FITC E2 scFv-CAR T cells were frozen in a T-cell freezing medium. Vials of frozen CAR-T cells were immediately stored at −80° C. The CAR-T cells were quickly thawed at 37° C., washed twice with PBS, and used for animal injection at 10 million viable EGFRt+E2 CAR-T cells (CD4/CD8 at ˜1:1) per animal. A small aliquot was taken on the day infusion for flow cytometric analysis of E2-CAR T-cell phenotypes.\nMouse blood samples were processed for plasma and stored at −20° C. until use. A human TH1 cytokine panel (Biolegend, Cat. No. 740009) and a human hematopoietic stem cell cytokine panel (Biolegend, Cat. No. 740610) was used to detect human cytokines in the mouse blood. […]\nWhole blood cell analysis: Plasma was removed from predetermined volumes of whole EDTA treated blood and RBCs were lysed with RBC lysis solution. […] Determination of the concentration of CAR T cells in each blood sample was calculated according to Invitrogen's instructions. CAR T cells were identified as human CD3ε+ EGFRt+ events and easily distinguished and counted using the Kaluza™ flow cytometry software. The number of CAR T cells in the circulation of each infused mouse was then represented on the graphs as the total number of CAR T cells per 100 μL of whole blood analyzed. Statistical significance was determined by utilizing an unpaired, two-tailed, students t30 test with significance set at p<0.05. […]"}, "HOS-FRα tumor": {"test_system": "HOS-FRα tumor", "assay": "CRS toxicity and sodium fluorescein rescue in HOS-FRα tumor-bearing mice", "assay_type": "in vivo", "conditions": "~2.5 million CD8 and ~33 million CD4 E2 CAR-T cells; days 4 and 11, after EC17 500 and 100 nmol/kg on days 3 and 10", "experimental": "All animal care and use were performed according to NIH guidelines and in compliance with protocols approved by the Purdue University Animal Use and Care Committee. Female 4 to 5-week-old NOD/SCID gamma (NSG™) mice (stock number: 005557) were purchased from The Jackson Laboratory (Bar Harbor, Me.). Unless specifically indicated, all animals were maintained on a FA-deficient diet (TestDiet, St. Louis, Mo.) upon arrival and throughout the study. To establish subcutaneous xenografts, MDA-MB-231 and HOS-FRα were implanted in the right flank region at 2.5×10^6 and 1×10^6 cells per animal, respectively. For intravenous xenografts, THP1-FRb cells were inoculated at 5×10^6 cells per animal. Subcutaneous tumors were measured 2-3 times per week with a caliper and calculated using the ellipsoidal formula […]. […] All animal doses (CAR-T cells, EC17, sodium fluorescein) were given intravenously.\nDepending on the CAR-T cell dose and how EC17 is administered, tumor-bearing mice receiving FITC-specific CAR-T cells can experience severe CRS and varying degrees of body weight loss. […] On the days immediately following each EC17 dose, animals were scored and rescue agents such as sodium fluorescein, folic acid and leucovorin were used to mitigate CRS toxicity. […]"}}, "data": [{"smiles": "NC1=NC2N=CC(CNc3ccc(C(=O)N[C@@H](CCC(=O)NCCNC(=S)Nc4ccc(-c5c6ccc(=O)cc-6oc6cc(O)ccc56)c(C(=O)O)c4)C(=O)O)cc3)=NC2C(=O)N1", "note": "(some centres unmarked) [EC17, FA-(g)-ethylenediamine-FITC]", "values": [{"measurement": "IFN-g production, difference between tumor-free and MDA-MB-231 tumor-bearing mice", "setting": "[1]", "result": 23, "unit": "fold"}, {"measurement": "CRS grade", "setting": "HOS-FRα tumor", "result": "1-2"}]}]}
